Data: US9309242B2, “Substituted pyrido[2,3-b]pyrazines as FGFR kinase inhibitors” (priority 2011, dated 2016)
Like-named read-outs stand apart in the source and are kept apart here.

Key:
[1] = target: FGFR3 (h) (Homo sapiens, UniProt P22607); experiment: FGFR3 (enzymatic assay), TR-FRET; assay type: biochemical; conditions: read-out: FGFR 3 pIC50 (converted)
Text: Time-Resolved Fluorescence Resonance Energy Transfer (TR-FRET) signal (ex340 nm.

[2] = target: FGFR4 (h) (Homo sapiens, UniProt P22455); experiment: FGFR4 (enzymatic assay), TR-FRET; assay type: biochemical; conditions: FGFR 4 pIC50, enzymatic assay
FGFR4 (h), sequence (P22455 22-802): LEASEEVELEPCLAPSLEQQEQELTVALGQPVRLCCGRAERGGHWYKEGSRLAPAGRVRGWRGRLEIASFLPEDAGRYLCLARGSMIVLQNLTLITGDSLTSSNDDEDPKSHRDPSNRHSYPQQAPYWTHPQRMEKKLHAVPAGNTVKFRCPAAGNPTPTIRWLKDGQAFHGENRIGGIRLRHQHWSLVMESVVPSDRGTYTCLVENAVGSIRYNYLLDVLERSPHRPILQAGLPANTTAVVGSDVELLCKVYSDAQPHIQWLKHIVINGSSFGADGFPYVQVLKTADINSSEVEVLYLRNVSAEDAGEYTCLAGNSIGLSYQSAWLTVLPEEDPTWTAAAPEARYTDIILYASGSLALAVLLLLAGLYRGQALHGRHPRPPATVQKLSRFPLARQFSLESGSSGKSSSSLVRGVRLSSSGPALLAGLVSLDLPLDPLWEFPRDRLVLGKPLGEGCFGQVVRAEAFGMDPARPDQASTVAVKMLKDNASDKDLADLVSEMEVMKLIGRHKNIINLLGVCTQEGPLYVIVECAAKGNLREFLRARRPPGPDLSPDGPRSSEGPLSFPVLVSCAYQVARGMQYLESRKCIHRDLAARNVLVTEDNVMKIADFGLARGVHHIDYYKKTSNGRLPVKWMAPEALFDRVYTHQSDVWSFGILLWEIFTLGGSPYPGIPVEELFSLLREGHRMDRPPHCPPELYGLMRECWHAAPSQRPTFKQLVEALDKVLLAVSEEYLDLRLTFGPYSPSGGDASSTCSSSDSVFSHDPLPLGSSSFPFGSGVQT

[3] = system: Ba/F3-FGFR1-transfected cells; experiment: Ba/F3-FGFR1 (plus IL3) cellular proliferation assay, counterscreen with 10 ng/ml murine IL3; assay type: cell-based; conditions: plus IL3 (10 ng/ml murine IL3, counterscreen); read-out: BAF3-FGFR1 (PLUS IL3) pIC50 (converted)
Summary of the method: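 Proliferation read-out: resazurin-based Alamar Blue fluorescence (540/590 nm) after 4 h, following 24 h compound treatment of 20000 Ba/F3-FGFR1 cells per well in 10% FBS RPMI at 37° C. IL3 counterscreen used the same protocol plus 10 ng/ml murine IL3.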

[4] = target: T1, Ba/F3-FGFR3-transfected cells (Homo sapiens, UniProt P22607); experiment: Ba/F3-FGFR3 (minus IL3) cellular proliferation assay, Alamar Blue; assay type: cell-based
T1 construct: BAF3-FGFR3 (MIN IL3) pIC50; other: minus IL3
T1 sequence (P22607 whole entry, change not shown): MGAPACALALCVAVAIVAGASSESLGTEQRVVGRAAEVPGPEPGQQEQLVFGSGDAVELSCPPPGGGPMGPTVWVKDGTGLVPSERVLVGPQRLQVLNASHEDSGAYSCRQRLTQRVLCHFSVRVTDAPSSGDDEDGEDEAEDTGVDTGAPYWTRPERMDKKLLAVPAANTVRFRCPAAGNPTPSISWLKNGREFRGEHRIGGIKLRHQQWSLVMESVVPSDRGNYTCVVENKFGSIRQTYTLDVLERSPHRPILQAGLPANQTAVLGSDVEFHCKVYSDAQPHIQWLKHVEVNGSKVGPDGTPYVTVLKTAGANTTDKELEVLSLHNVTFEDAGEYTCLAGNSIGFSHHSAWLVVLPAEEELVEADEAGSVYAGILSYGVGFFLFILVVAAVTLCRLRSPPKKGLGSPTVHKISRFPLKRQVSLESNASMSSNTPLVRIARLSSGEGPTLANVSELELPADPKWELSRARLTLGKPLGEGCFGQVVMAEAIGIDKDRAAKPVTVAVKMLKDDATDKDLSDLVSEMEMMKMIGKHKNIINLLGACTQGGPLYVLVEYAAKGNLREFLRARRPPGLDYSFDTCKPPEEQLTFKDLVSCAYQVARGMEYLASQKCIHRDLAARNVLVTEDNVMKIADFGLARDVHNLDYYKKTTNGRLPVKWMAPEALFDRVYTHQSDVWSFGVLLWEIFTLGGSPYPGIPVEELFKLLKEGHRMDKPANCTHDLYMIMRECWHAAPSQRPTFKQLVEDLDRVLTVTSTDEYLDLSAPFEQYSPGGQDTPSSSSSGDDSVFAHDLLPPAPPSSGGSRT
Summary of the method: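 Ba/F3 cells transfected with FGFR3, 20000/well in phenol red-free RPMI-1640 with 10% FBS, exposed to compound for 24 h at 37 °C, 5% CO2. Alamar Blue (resazurin) added for 4 h more; fluorescence read at ex 540/em 590 nm. Counterscreen run the same way with 10 ng/ml murine IL3.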

[5] = target: T2, Ba/F3-KDR-transfected cells (Homo sapiens, UniProt P35968); experiment: Ba/F3-KDR (minus IL3) cellular proliferation assay, Alamar Blue; assay type: cell-based
T2 construct: BAF3-KDR (MIN IL3) pIC50; other: minus IL3
T2 sequence (P35968 whole entry, change not shown): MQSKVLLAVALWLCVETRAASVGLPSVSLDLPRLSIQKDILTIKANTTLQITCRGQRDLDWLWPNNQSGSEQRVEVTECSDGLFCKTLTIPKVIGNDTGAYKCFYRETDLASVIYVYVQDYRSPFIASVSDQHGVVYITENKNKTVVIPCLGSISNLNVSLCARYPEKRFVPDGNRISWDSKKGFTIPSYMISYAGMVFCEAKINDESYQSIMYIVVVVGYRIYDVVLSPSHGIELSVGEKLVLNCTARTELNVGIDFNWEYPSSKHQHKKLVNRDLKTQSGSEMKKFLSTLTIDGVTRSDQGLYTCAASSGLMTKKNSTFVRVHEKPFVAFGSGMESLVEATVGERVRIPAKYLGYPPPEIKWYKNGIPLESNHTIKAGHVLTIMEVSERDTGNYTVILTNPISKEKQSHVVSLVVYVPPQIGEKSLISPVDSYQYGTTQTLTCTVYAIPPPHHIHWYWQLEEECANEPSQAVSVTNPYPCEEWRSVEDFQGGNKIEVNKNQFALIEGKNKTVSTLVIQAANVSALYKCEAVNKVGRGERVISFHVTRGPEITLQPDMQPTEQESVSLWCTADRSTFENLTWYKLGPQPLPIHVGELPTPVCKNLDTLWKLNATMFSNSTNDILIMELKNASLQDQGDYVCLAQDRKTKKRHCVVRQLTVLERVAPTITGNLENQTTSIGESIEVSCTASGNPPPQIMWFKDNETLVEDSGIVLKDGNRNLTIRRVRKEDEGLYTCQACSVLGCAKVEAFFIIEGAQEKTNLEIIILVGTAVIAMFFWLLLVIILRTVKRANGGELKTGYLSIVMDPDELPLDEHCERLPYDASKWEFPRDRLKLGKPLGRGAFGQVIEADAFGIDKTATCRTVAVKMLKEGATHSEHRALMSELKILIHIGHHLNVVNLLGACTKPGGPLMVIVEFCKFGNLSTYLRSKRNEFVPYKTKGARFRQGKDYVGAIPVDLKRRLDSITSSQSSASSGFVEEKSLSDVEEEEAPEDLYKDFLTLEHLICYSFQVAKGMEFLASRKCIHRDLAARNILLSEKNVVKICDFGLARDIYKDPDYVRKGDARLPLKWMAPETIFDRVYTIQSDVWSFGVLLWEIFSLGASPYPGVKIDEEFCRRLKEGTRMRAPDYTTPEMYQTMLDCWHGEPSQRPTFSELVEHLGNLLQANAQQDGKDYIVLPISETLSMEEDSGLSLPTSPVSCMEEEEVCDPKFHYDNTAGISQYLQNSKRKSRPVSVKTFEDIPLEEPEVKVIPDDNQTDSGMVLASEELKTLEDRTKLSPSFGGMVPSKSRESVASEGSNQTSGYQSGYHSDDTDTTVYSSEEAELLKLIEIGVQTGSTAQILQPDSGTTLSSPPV
Summary of the method: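 Proliferation read-out by Alamar Blue fluorescence (ex. 540 nm, em. 590 nm) after 4 hours, following 24 hours of compound treatment at 37° C of 20000 Ba/F3-KDR cells per well in RPMI-1640/10% FBS. Same protocol with 10 ng/ml murine IL3 serves as counterscreen.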

[6] = average values if tested multiple times

FGFR3 (h), sequence (P22607 23-806): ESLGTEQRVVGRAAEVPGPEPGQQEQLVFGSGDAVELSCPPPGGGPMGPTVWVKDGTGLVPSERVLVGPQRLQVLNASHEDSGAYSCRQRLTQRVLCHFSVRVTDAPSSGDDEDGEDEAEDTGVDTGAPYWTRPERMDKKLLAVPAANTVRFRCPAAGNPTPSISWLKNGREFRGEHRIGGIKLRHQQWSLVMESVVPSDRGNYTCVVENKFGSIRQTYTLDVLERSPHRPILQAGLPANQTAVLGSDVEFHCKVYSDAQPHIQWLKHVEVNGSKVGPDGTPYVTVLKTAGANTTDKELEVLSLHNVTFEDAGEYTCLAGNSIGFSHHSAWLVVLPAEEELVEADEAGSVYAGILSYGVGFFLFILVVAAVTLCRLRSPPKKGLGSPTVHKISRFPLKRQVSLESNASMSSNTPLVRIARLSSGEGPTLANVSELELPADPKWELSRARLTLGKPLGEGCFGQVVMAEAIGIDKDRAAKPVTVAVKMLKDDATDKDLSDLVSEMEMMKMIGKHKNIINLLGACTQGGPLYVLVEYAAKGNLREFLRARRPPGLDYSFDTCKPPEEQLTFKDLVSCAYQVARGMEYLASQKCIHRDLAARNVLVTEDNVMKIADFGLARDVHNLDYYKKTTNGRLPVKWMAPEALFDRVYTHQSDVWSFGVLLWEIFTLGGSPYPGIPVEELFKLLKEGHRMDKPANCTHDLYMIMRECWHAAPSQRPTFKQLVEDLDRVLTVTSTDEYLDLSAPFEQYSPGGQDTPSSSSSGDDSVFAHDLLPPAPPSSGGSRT

## COc1cc(OC)cc(N(CC(O)C(F)(F)F)c2ccc3ncc(-c4cnn(C)c4)nc3n2)c1 (single isomer, unassigned) [Compound 33]
[1]; [6]
  IC50: 0.708 nM
[2]; [6]
  IC50: 1.41 nM
[3]
  IC50: > 10000 nM
[4]
  BAF3-FGFR3 (MIN IL3) pIC50: ~7.64
[5]
  BAF3-KDR (MIN IL3) pIC50: 5.26
other
  melting point: 208 °C

## COc1cc(OC)c(F)c(N(Cc2nc[nH]n2)c2ccc3ncc(-c4cnn(C)c4)nc3n2)c1 [Compound 86]
[1]; [6]
  IC50: 1 nM
[2]; [6]
  IC50: 1.12 nM
[3]
  IC50: > 10000 nM
[4]
  BAF3-FGFR3 (MIN IL3) pIC50: ~7.90
[5]
  BAF3-KDR (MIN IL3) pIC50: 6.24

## COc1ccc(Cl)c(/N=c2\ccc3ncc(-c4cnn(C)c4)nc3n2CC2CCC(=O)N2)c1Cl (centres unmarked) [Compound 92]
[1]; [6]
  IC50: 46.8 nM
[2]; [6]
  IC50: 562 nM
[3]
  IC50: > 10000 nM
[4]
  BAF3-FGFR3 (MIN IL3) pIC50: ~5.61
[5]
  BAF3-KDR (MIN IL3) pIC50: <5

## COc1cc(OC)c(Cl)c(N(Cc2ncc[nH]2)c2ccc3ncc(-c4cnn(C)c4)nc3n2)c1Cl [Compound 98]
[1]; [6]
  IC50: 2.69 nM
[2]; [6]
  IC50: 7.76 nM
[3]
  IC50: > 10000 nM
[4]
  BAF3-FGFR3 (MIN IL3) pIC50: 7.65
[5]
  BAF3-KDR (MIN IL3) pIC50: 6.19

## COc1cc(OC)c(F)c(N(Cc2ncc[nH]2)c2ccc3ncc(-c4cnn(Cc5ncc[nH]5)c4)nc3n2)c1 [Compound 100]
[1]; [6]
  IC50: 1.29 nM
[2]; [6]
  IC50: 1.29 nM
[3]
  IC50: > 10000 nM
[4]
  BAF3-FGFR3 (MIN IL3) pIC50: 7.56
[5]
  BAF3-KDR (MIN IL3) pIC50: 5.41

## COc1cc(OC)c(F)c(N(Cc2nc3c([nH]2)CCNC3)c2ccc3ncc(-c4cnn(C)c4)nc3n2)c1 [Compound 104]
[1]; [6]
  IC50: 3.09 nM
[2]; [6]
  IC50: 3.47 nM
[3]
  IC50: > 10000 nM
[4]
  BAF3-FGFR3 (MIN IL3) pIC50: ~6.01
[5]
  BAF3-KDR (MIN IL3) pIC50: 5.10

## CNCCN(c1ccc2ncc(-c3cn[nH]c3)nc2n1)c1c(F)c(OC)cc(OC)c1F [Compound 106]
[1]; [6]
  IC50: 1.48 nM
[2]; [6]
  IC50: 4.68 nM
[3]
  IC50: > 10000 nM
[4]
  BAF3-FGFR3 (MIN IL3) pIC50: ~7.12
[5]
  BAF3-KDR (MIN IL3) pIC50: 5.59

## COc1cc(OC)c(F)c(N(Cc2nc[nH]c2C)c2ccc3ncc(-c4cnn(C)c4)nc3n2)c1 [Compound 109]
[1]; [6]
  IC50: 1.45 nM
[2]; [6]
  IC50: 2.69 nM
[3]
  IC50: > 10000 nM
[4]
  BAF3-FGFR3 (MIN IL3) pIC50: ~7.65
[5]
  BAF3-KDR (MIN IL3) pIC50: ~6.01

## COc1cc(OC)c(F)c(N(Cc2ccnn2C)c2ccc3ncc(-c4cnn(C)c4)nc3n2)c1 [Compound 113]
[1]; [6]
  IC50: 1.38 nM
[2]; [6]
  IC50: 3.31 nM
[3]
  IC50: > 10000 nM
[4]
  BAF3-FGFR3 (MIN IL3) pIC50: 6.72
[5]
  BAF3-KDR (MIN IL3) pIC50: 5.33

## COc1cc(/N=c2\ccc3ncc(-c4cnn(C)c4)nc3n2Cc2ccnn2C)c(F)c(OC)c1 [Compound 114]
[1]; [6]
  IC50: 0.724 nM
[2]; [6]
  IC50: 0.891 nM
[3]
  IC50: > 10000 nM
[4]
  BAF3-FGFR3 (MIN IL3) pIC50: ~7.66
[5]
  BAF3-KDR (MIN IL3) pIC50: ~7.05

## COc1cc(/N=c2\ccc3ncc(-c4cnn(C)c4)nc3n2Cc2cc[nH]n2)c(F)c(OC)c1 [Compound 115]
[1]; [6]
  IC50: 0.851 nM
[2]; [6]
  IC50: 0.933 nM
[3]
  IC50: > 10000 nM
[4]
  BAF3-FGFR3 (MIN IL3) pIC50: 7.82
[5]
  BAF3-KDR (MIN IL3) pIC50: 6.58

## COc1cc(OC)c(F)c(N(Cc2cc[nH]n2)c2ccc3ncc(-c4cnn(C)c4)nc3n2)c1 [Compound 118]
[1]; [6]
  IC50: 0.589 nM
[2]; [6]
  IC50: 0.776 nM
[3]
  IC50: > 10000 nM
[4]
  BAF3-FGFR3 (MIN IL3) pIC50: ~8.04
[5]
  BAF3-KDR (MIN IL3) pIC50: 6.60

## COc1cc(/N=c2\ccc3ncc(-c4cnn(C)c4)nc3n2CCCN2CCCC2=O)c(F)c(OC)c1 [Compound 119]
[1]
  IC50: 0.708 nM
[2]
  IC50: 1 nM
[3]
  IC50: > 3980 nM
[4]
  BAF3-FGFR3 (MIN IL3) pIC50: ~8.07
[5]
  BAF3-KDR (MIN IL3) pIC50: ~6.52

## COc1cc(OC)c(F)c(N(CCCN2CCCC2=O)c2ccc3ncc(-c4cnn(C)c4)nc3n2)c1 [Compound 120]
[1]
  IC50: 1.86 nM
[2]
  IC50: 3.24 nM
[3]
  IC50: > 10000 nM
[4]
  BAF3-FGFR3 (MIN IL3) pIC50: 7.16
[5]
  BAF3-KDR (MIN IL3) pIC50: 6.10

## CNCCN(c1ccc2ncc(-c3cnn(C)c3)nc2n1)c1c(F)c(O)cc(OC)c1F [Compound 122]
[1]
  IC50: 2.51 nM
[2]
  IC50: 9.55 nM
[3]
  IC50: > 10000 nM
[4]
  BAF3-FGFR3 (MIN IL3) pIC50: 6.09
[5]
  BAF3-KDR (MIN IL3) pIC50: <5

## COc1cc(/N=c2\ccc3ncc(-c4cnn(C)c4)nc3n2CC2COC(=O)N2)c(F)c(OC)c1 (centres unmarked) [Compound 123]
[1]
  IC50: 0.741 nM
[2]
  IC50: 2.75 nM
[3]
  IC50: > 10000 nM
[4]
  BAF3-FGFR3 (MIN IL3) pIC50: 7.16
[5]
  BAF3-KDR (MIN IL3) pIC50: 5.53

## COc1cc(OC)c(F)c(N(CC2COC(=O)N2)c2ccc3ncc(-c4cnn(C)c4)nc3n2)c1 (centres unmarked) [Compound 124]
[1]
  IC50: 1.55 nM
[2]
  IC50: 4.27 nM
[3]
  IC50: > 10000 nM
[4]
  BAF3-FGFR3 (MIN IL3) pIC50: ~7.16
[5]
  BAF3-KDR (MIN IL3) pIC50: 5.49

## COc1cc(OC)c(F)c(N(Cc2cn[nH]c2)c2ccc3ncc(-c4cnn(C)c4)nc3n2)c1 [Compound 125]
[1]
  IC50: 0.724 nM
[2]
  IC50: 1.58 nM
[3]
  IC50: > 10000 nM
[4]
  BAF3-FGFR3 (MIN IL3) pIC50: ~7.57
[5]
  BAF3-KDR (MIN IL3) pIC50: 6.21

## COc1cc(OC)c(F)c(N(Cc2ccn(C)n2)c2ccc3ncc(-c4cnn(C)c4)nc3n2)c1 [Compound 128]
[1]
  IC50: 1.05 nM
[2]
  IC50: 1.29 nM
[3]
  IC50: > 10000 nM
[4]
  BAF3-FGFR3 (MIN IL3) pIC50: 8.03
[5]
  BAF3-KDR (MIN IL3) pIC50: 6.34

## COc1cc(OC)c(F)c(N(Cc2nccn2C)c2ccc3ncc(-c4cnn(C)c4)nc3n2)c1 [Compound 131]
[1]
  IC50: 2.95 nM
[2]
  IC50: 7.41 nM
[3]
  IC50: > 10000 nM
[4]
  BAF3-FGFR3 (MIN IL3) pIC50: 7.25
[5]
  BAF3-KDR (MIN IL3) pIC50: 5.50

## COc1cc(OC)c(F)c(N(Cc2nncn2C)c2ccc3ncc(-c4cnn(C)c4)nc3n2)c1 [Compound 132]
[1]
  IC50: 4.27 nM
[2]
  IC50: 17.4 nM
[3]
  IC50: > 10000 nM
[4]
  BAF3-FGFR3 (MIN IL3) pIC50: ~6.64
[5]
  BAF3-KDR (MIN IL3) pIC50: 5.38

## COc1cc(OC)cc(N(CCCN2CCCC2=O)c2ccc3ncc(-c4cnn(C)c4)nc3n2)c1 [Compound 134]
[1]
  IC50: 3.8 nM
[2]
  IC50: 11.7 nM
[3]
  IC50: > 10000 nM
[4]
  BAF3-FGFR3 (MIN IL3) pIC50: ~6.64
[5]
  BAF3-KDR (MIN IL3) pIC50: 5.20

## COc1cc(OC)c(F)c(N(Cc2nc(C)c[nH]2)c2ccc3ncc(-c4cnn(C)c4)nc3n2)c1 [Compound 135]
[1]
  IC50: 1.48 nM
[2]
  IC50: 1.26 nM
[3]
  IC50: > 10000 nM
[4]
  BAF3-FGFR3 (MIN IL3) pIC50: 8.25
[5]
  BAF3-KDR (MIN IL3) pIC50: 6.64

## COc1cc(OC)c(F)c(N(Cc2c[nH]c(C)n2)c2ccc3ncc(-c4cnn(C)c4)nc3n2)c1 [Compound 137]
[1]
  IC50: 1.58 nM
[2]
  IC50: 1.7 nM
[3]
  IC50: > 10000 nM
[4]
  BAF3-FGFR3 (MIN IL3) pIC50: 7.64
[5]
  BAF3-KDR (MIN IL3) pIC50: 6.19

## COc1cc(OC)c(F)c(N(CC2CCC(=O)N2)c2ccc3ncc(-c4cnn(C)c4)nc3n2)c1F (centres unmarked) [Compound 192]
[1]; [6]
  IC50: 1.55 nM
[2]; [6]
  IC50: 2.09 nM
[3]
  IC50: > 10000 nM
[4]
  BAF3-FGFR3 (MIN IL3) pIC50: 7.78
[5]
  BAF3-KDR (MIN IL3) pIC50: 6.11

## COc1cc(OC)c(F)c(/N=c2\ccc3ncc(-c4cnn(C)c4)nc3n2CC2CCC(=O)N2)c1F (centres unmarked) [Compound 193]
[1]; [6]
  IC50: 0.417 nM
[2]; [6]
  IC50: 0.955 nM
[3]
  IC50: > 10000 nM
[4]
  BAF3-FGFR3 (MIN IL3) pIC50: ~8.06
[5]
  BAF3-KDR (MIN IL3) pIC50: 6.28
